Data from the NIST ThermoML archive (doi:10.1016/j.jct.2011.05.003).

Experiment: xn = mol fraction of the nth substance listed
Conditions: Liquid; for speed of sound: 101 kPa, Sing-around technique in a fixed-path interferometer; for mass density: 101.3 kPa, Vibrating tube method

CCCCNCCCC [dibutylamine] + CCCCCC(C)=O
Conditions	mass density [kg/m3]	speed of sound [m/s]
293.15 K, x2 = 0.064	762.405	1261.7
293.15 K, x2 = 0.1633	767.21	1263
293.15 K, x2 = 0.2061	769.239	1263.4
293.15 K, x2 = 0.2606	772.046	1264.5
293.15 K, x2 = 0.4493	781.952	1267.8
293.15 K, x2 = 0.5094	785.255	1269.1
293.15 K, x2 = 0.644	792.949	1272.1
293.15 K, x2 = 0.7511	799.387	1274.7
293.15 K, x2 = 0.9018	808.899	1278.8
298.15 K, x2 = 0.0624	758.343	1241.7
298.15 K, x2 = 0.1107	760.603	1242.2
298.15 K, x2 = 0.2097	765.511	1243.8
298.15 K, x2 = 0.3613	773.119	1246.3
298.15 K, x2 = 0.4049	775.426	1247.1
298.15 K, x2 = 0.4499	777.849	1248
298.15 K, x2 = 0.5496	783.354	1250.2
298.15 K, x2 = 0.6482	789.026	1252.5
298.15 K, x2 = 0.7509	795.166	1255.1
298.15 K, x2 = 0.7987	798.112	1256.4
298.15 K, x2 = 0.8986	804.449	1259.3
298.15 K, x2 = 0.9488	807.773	1261
303.15 K, x2 = 0.1122	756.507	1223.3
303.15 K, x2 = 0.1605	758.79	1223.9
303.15 K, x2 = 0.2587	763.614	1225.3
303.15 K, x2 = 0.3597	768.787	1227.2
303.15 K, x2 = 0.4096	771.421	1228.2
303.15 K, x2 = 0.4986	776.259	1230.1
303.15 K, x2 = 0.6478	784.736	1233.7
303.15 K, x2 = 0.747	790.673	1236.3
303.15 K, x2 = 0.7997	793.928	1237.9
303.15 K, x2 = 0.852	797.226	1239.4
303.15 K, x2 = 0.8984	800.193	1240.8
